Data reported in patent US20180263945A1, “PYRUVATE COMPOUNDS FOR TREATMENT OF PERIPHERAL NEUROPATHY” (Research Institute at Nationwide Children's Hospital, priority 2014, published 2018).

B1: neurotrophin-3 (protein, UniProt P20783 139-257, looked up)
Neurotrophin-3: YAEHKSHRGEYSVCDSESLWVTDKSSAIDIRGHQVTVLGEIKTGNSPVKQYFYETRCKEARPVKNGCRGIDDKHWNSQCKTSQTYVRALTSENNKLVGWRWIRIDTSCVCALSRKIGRT
modifications: Neurotrophin-3
notes: neurotrophic agent neurotrophin-3

Legend:
[1] = test system: Sciatic Nerves from Tr^J Mice; test: Myelinated fiber density determinations, sciatic nerve crush/regeneration study (Example 1); assay type: in vivo; settings: 4% sodium pyruvate in drinking water, twenty weeks after crush
Procedure: (§1) Six weeks old Tr^J mice (pmp22^Tr-J) were used in this study. A total of 8 Tr^J mice (mouse model for demyelinating CMT) were studied. Five received SP, 4% in drinking water, 3 mice left untreated to serve as control. All treatment protocols and animal surgeries were conducted under the protocols approved by the Nationwide Children's Hospital and The Ohio State University Animal Care and Use Committee. Animals were acclimatized by placing on 2.5% apple juice first, which was increased to 20% a week later. In one group (pyruvate group; n=5) sodium pyruvate (Sigma) was added to apple juice in 2.5% concentration and a week later increased to 4%. The pyruvate group remained 4% sodium pyruvate in 20% apple juice drinking water throughout the duration of the study. The control group (n=3) continued on 20% apple juice only. Drinking solutions were freshly prepared every other day.
Both groups underwent sciatic nerve crush procedure one week after starting on sodium pyruvate in apple juice or apple juice alone, providing the results shown in FIGS. 1 and 2. […]
Quantitative analysis at the light microscopic level was performed on 1 μm-thick toluidine blue stained cross sections from regenerating and intact uncrushed sciatic nerves from pyruvate and control groups. […] Unpaired t-test was calculated using graphPad Prism 6 program for comparison of the two sets of data.

Tr^J mice [2] = test: Functional studies: hind limb grip strength, wire hanging test (Example 1); assay type: in vivo; settings: at 16 weeks of treatment
Procedure: (§2) Additional studies were designed to assess the efficacy of pyruvate treatment using a quantitative test that has functional significance. Six Tr^J mice received SP in their drinking water and the sciatic nerve conduction studies were carried out at baseline and 16 weeks of SP supplementation. Among the parameters obtained from these studies CMAP is a direct measure of the size of the motor unit. Results were compared to age-matched Tr^J-control cohort. Functional studies (hind limb grip strength, wire hanging test and rotorod) were done at baseline and at 7 to 10 day intervals.
Wire Hang test: The mice were allowed to grasp by their four paws a 2-mm diameter metal wire maintained horizontally 35 cm above a thick layer of soft bedding (device made by the NCH Bioengineering Department according to the specifications of Klein et al.). Klein et al. J Neurosci Methods, 203:292-297 (2012). The length of time until the mice fell from the wire was recorded. After each fall, the mice were allowed to recover for 1 minute. […]
Motor function testing Tr^J mice were tested for baseline motor function within 1 week prior to receiving i.m. injection of ssAAV1.CMV.NT-3 or PBS. […] Bilateral or unilateral grip strength was assessed by allowing the animals to grasp a platform followed by pulling the animal until it releases the platform; the force measurements were recorded in four separate trials. […]

Tr^J mice [3] = test: Sciatic nerve conduction studies (Example 1); assay type: in vivo
Source text: as §2, with “Six Tr^J mice received SP in their drinking water and the sciatic nerve conduction studies were carried out at baseline and 16 weeks of SP supplementation.” left out
(§3) Nerve Conduction Studies: Sciatic motor nerve conduction studies were performed on mice under isoflurane anesthesia using a portable electrodiagnostic system (Synergy N2 EMG and nerve conduction study machine, Natus, Middleton, Wis.) as previously described. Yalvac et al., Mol Ther. 22(7):1353-63 (2014). Distance for electrode placement was measured using a compass with a needle edge and a millimeter-graduated tape measure. The sciatic motor nerve conduction responses were recorded using two fine ring electrodes (Alpine Biomed, Skovlunde, Denmark) used as the active (E1) and reference (E2) electrodes. The active recording electrode was placed over the mid portion of the gastrocnemius muscle and the reference electrode over the tendon. […] The parameters measured included compound muscle action potential (CMAP) amplitude, distal latency, and conduction velocity.

TrJ mice [4] = test: Nerve conduction studies, AAV1.NT-3 and pyruvate combinatorial therapy (Example 2); assay type: in vivo; settings: 4 months of treatment, 4% SP in drinking water; control group decreased (P<0.05)
Procedure: FIG. 4 provides a bar graph showing the results of nerve conduction studies that were performed at baseline and endpoint following 4 months of treatment duration. […] (Error bars represent standard error of the mean. Student t test was performed).
Using the methods described below, nerve conduction studies were performed at the baseline and the endpoint, 4 months post-AAV1.NT-3 injection. During this period TrJ mice were given ad libitum access to drinking water containing 4% SP.
as §3

[5] = test system: Sciatic Nerves from Tr^J Mice; test: Histopathology and myelinated fiber density, sciatic nerves at 16 weeks of treatment (Example 2); assay type: in vivo
TrJ mice [6] = test: Motor function: grip strength test and four-limb wire hanging strength test (Example 2); assay type: in vivo; settings: endpoint, 4 months post injection; P<0.05
Procedure: Mice were tested for motor functions at the endpoint (4 months post injection) by performing grip strength test and four-limb wire hanging strength test. […] (Error bars represent standard error of the mean. Student t test was performed).
Wire Hang test: The mice were allowed to grasp by their four paws a 2-mm diameter metal wire maintained horizontally 35 cm above a thick layer of soft bedding (device made by the NCH Bioengineering Department according to the specifications of Klein et al.). […] The length of time until the mice fell from the wire was recorded. After each fall, the mice were allowed to recover for 1 minute. Each session consisted of three trials from which the scores were averaged.
Motor function testing Tr^J mice were tested for baseline motor function within 1 week prior to receiving i.m. injection of ssAAV1.CMV.NT-3 or PBS. Motor function tests included bilateral simultaneous hindlimb grip power and that of the left hind paw using a grip strength meter (Chatillon Digital Meter; Model DFIS-2; Columbus Instruments, Columbus, Ohio). Bilateral or unilateral grip strength was assessed by allowing the animals to grasp a platform followed by pulling the animal until it releases the platform; the force measurements were recorded in four separate trials. Measurements were performed on the same day and time of each week. […]

[7] = test system: Sciatic Nerves from Tr^J Mice; test: g ratio of the myelinated fibers, sciatic nerve crush/regeneration study (Example 1); assay type: in vivo; settings: for percent of fibers with G ratio less than 0.8: SP 4% in drinking water, 20 weeks; for percent of fibers within a G ratio range of 0.4-0.7: pyruvate group, control Tr^J 6.5%
Procedure: as §1
Both groups underwent sciatic nerve crush procedure one week after starting on sodium pyruvate in apple juice or apple juice alone, providing the results shown in FIGS. 1 and 2. Under isoflurane anesthesia left sciatic nerves were exposed and crushed with a fine forceps at a level 5 mm distal to the sciatic notch to generate a regeneration paradigm as previously described. Sahenk et al., Exp Neurol 224, 495-506 (2010). The crush site was marked by a 10-0 nylon suture tie passed through the epineurium. Mice were then killed quickly by an over-dosage of xylazine/ketamine anesthesia and the sciatic nerves from crushed and intact sites were removed under a dissecting microscope. Approximately 2 mm in length tissue blocks immediately distal to the crush site and the subsequent three segments, all marked for proximo-distal orientation as well as the mid sciatic segments from the contralateral uncrushed nerves were processed for plastic embedding for light microscope thick sections and electron microscopy using standard methods established by the inventors.
The g ratio refers to the ratio of axonal diameter/fiber diameter and lower g ratios represent axons with thicker myelin. Beuche, W., and Friede, R. L., Acta Neuropathol 66, 29-36 (1985); Friede, R. L., and Beuche, W., J Neurol Neurosurg Psychiatry 48, 749-756 (1985). For each animal, measurements from all fibers in 3 randomly selected representative unit areas were included and the g ratio distribution histograms were generated as percent of total fibers analyzed as previously described. Measurements from regenerating and intact nerves were obtained in each group. One way ANOVA was used to determine statistical analysis.

trembler^J (Tr^J) mouse = settings: previous studies of the inventors; cited from earlier work
CMT1A patients = settings: previous studies of the inventors; cited from earlier work

Row | Molecule | Myelinated Fiber Density, Intact, mean ± SEM ([1]; intact (uncrushed) sciatic nerve, p = 0.0271 vs control) [number/mm2] | Myelinated Fiber Density, Regenerating, mean ± SEM ([1]; regenerating (crushed) sciatic nerve, p = 0.0075 vs control) [number/mm2] | hind limb grip strength compared to the untreated Tr^J controls (Tr^J mice [2]) | wire hanging test (WHT) compared to the untreated Tr^J controls (Tr^J mice [2]) | Trends for improvements in conduction velocities and distal latencies (Tr^J mice [3]; Tr^J mice, pyruvate supplementation) | CMAP amplitude of the Tr^J sciatic nerves, baseline vs endpoint (Tr^J mice [3]; pyruvate supplementation for 24 weeks, untreated controls deteriorated further) | CMAP amplitudes at the endpoint compared to the baseline (TrJ mice [4]) | myelinated fibers and myelin thickness in toluidine blue stained sciatic nerve sections vs untreated ([5]; TrJ mice, 16 weeks of treatment) | Myelinated Fiber Density, mean ± SEM ([5]; sciatic nerves, Tr^J mice, treatment duration 16 wks) [number/mm2] | four-limb wire hanging strength test vs control group (TrJ mice [6]) | grip strength test vs control group (TrJ mice [6]) | G ratios (axon diameter/fiber diameter) in comparison to the control Tr^J ([7]; intact and regenerating sciatic nerves, lower g ratio = thicker myelin) | percent of fibers with G ratio less than 0.8 ([7]; intact nerves, control 42%) | percent of fibers within a G ratio range of 0.4-0.7 ([7]; intact nerves) | percent of fibers with G ratio less than 0.8 ([7]; regenerating nerves, control 17%) [%] | percent of fibers within a G ratio range of 0.4-0.7 ([7]; regenerating nerves) [%] | improving myelination during regeneration, more than that of the control group ([7]; regenerating nerves, pyruvate supplementation) | effect on trembler^J (Tr^J) mouse (trembler^J (Tr^J) mouse) | efficacy in CMT1A patients (CMT1A patients)
1 | CC(=O)C(=O)[O-].[Na+] [pyruvate, sodium pyruvate] | 16583 ± 749 | 18259 ± 1051 | significantly better | significantly better | not significant | protected CMAP amplitude | preserved their CMAPs | notable increase in myelinated fibers and increased myelin thickness | 15000.2 ± 878.4 | performed better than control group | performed better than control group | significantly reduced | about 53% | about 29% | 43 | 22 | about 27% | – | –
2 | B1 | – | – | – | – | – | – | – | – | – | – | – | – | – | – | – | – | – | improved | showed efficacy
